Reference: article PMC3611663 (American heart journal, 2011)
Read-outs that look alike come from different tables or passages of the source. Bridge positions count the residues as written; N and C are the ends. Square brackets hold non-standard residues; d marks the D form. Peptide text beside a SMILES is read from it. hArg = N=C(N)NCCCC[C@H](N)C(=O)O; Mpa = O=C(O)CCS

Legend:
[1] = format: in vivo, human
GP IIb/IIIa receptor = details: PRIDE study; cited from earlier work

Question: For `N=C(N)NCCCC[C@@H]1NC(=O)CCSSC[C@@H](C(N)=O)NC(=O)[C@@H]2CCCN2C(=O)[C@H](Cc2c[nH]c3ccccc23)NC(=O)[C@H](CC(=O)O)NC(=O)CNC1=O` [Eptifibatide] ([Mpa][hArg]GDWPC-NH2; disulfide 1-7 (inferred); C-terminus assumed), which “Slope of plasma concentration versus body weight (ANCOVA regression)” value ([1]; ABW dosing) is on record?
Answer: 20.6

Question: And the “Patients with plasma Eptifibatide >1600 ng/mL” value ([1]; ABW-based dosing (N=22))?
Answer: 14 (64) no. (%)

Question: What about the “Patients with plasma Eptifibatide ≤1600 ng/mL” value ([1]; ABW-based dosing (N=22)) of the same compound?
Answer: 8 (36) no. (%)

Question: And the “Slope of plasma concentration versus body weight (ANCOVA regression)” value ([1]; IBW dosing)?
Answer: 6.9

Question: And the “Patients with plasma Eptifibatide >1600 ng/mL” value ([1]; IBW-based dosing (N=20))?
Answer: 2 (10) no. (%)

Question: What about the “Patients with plasma Eptifibatide ≤1600 ng/mL” value ([1]; IBW-based dosing (N=20)) of the same compound?
Answer: 18 (90) no. (%)

Question: And the “Slope of plasma concentration versus body weight (ANCOVA regression)” value ([1]; standard dosing)?
Answer: −6.4

Question: What about the “Patients with plasma Eptifibatide >1600 ng/mL” value ([1]; standard dosing (N=19)) of the same compound?
Answer: 10 (53) no. (%)

Question: And the “Patients with plasma Eptifibatide ≤1600 ng/mL” value ([1]; standard dosing (N=19))?
Answer: 9 (47) no. (%)

Question: What about the “Plasma concentration necessary to achieve >80% occupancy of the GP IIb/IIIa receptor” value (GP IIb/IIIa receptor) of the same compound?
Answer: approximately 1600 ng/mL
